From ChEMBL document CHEMBL1132881, “First pharmacophoric hypothesis for 5-HT7 antagonism” (Bioorg Med Chem Lett, 2000)

biological target: T1, 5-hydroxytryptamine receptor 7 (Rattus norvegicus, UniProt P32305); experiment: Binding affinity against 5-hydroxytryptamine 7 receptor using [3H]-5-CT in rat hypothalamus membranes; format: cell membranes, Membrane
T1 sequence (P32305 whole entry): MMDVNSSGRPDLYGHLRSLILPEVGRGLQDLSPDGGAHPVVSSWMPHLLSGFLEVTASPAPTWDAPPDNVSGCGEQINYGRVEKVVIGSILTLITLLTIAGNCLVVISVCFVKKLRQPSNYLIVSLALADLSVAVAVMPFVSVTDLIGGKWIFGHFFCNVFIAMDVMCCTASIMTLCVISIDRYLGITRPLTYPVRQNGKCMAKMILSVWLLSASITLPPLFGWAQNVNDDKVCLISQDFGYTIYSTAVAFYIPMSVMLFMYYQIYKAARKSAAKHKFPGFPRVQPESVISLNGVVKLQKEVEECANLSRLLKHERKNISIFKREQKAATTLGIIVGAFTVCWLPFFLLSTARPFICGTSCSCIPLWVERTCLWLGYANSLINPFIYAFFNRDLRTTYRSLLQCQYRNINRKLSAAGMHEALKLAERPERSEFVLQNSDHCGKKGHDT

Point of comparison: `COc1ccccc1N1CCN(CCCCN2C(=O)c3cccc4cccc2c34)CC1`, Ki 63.1 nM. Against it:
- CN1CCN(CCCCN2c3cccc4cccc(c34)S2(=O)=O)CC1 — higher, > 10000 nM
- CC1CCN(CCCCCN2c3cccc4cccc(c34)S2(=O)=O)CC1 — higher, > 10000 nM
- CC1CCN(CCCCN2c3cccc4cccc(c34)S2(=O)=O)CC1 — higher, > 10000 nM
- COc1ccccc1N1CCN(CCCCCCN2c3cccc4cccc(c34)S2(=O)=O)CC1 — 3.2-fold higher, 200 nM
- O=S1(=O)c2cccc3cccc(c23)N1CCCCCN1CCN(c2ccccc2)CC1 — 3.2-fold higher, 200 nM
- COc1ccccc1N1CCN(CCCCN2c3cccc4cccc(c34)S2(=O)=O)CC1 — 3.2-fold higher, 200 nM
- O=C1c2cccc3cccc(c23)N1CCCCN1CCCCC1 — higher, > 10000 nM
- CN1CCN(CCCCN2C(=O)c3cccc4cccc2c34)CC1 — higher, > 10000 nM
- CC(C)C1CCN(CCCCN2C(=O)c3cccc4cccc2c34)CC1 — 3.2-fold higher, 200 nM
- COc1ccccc1N1CCN(CCCCCN2C(=O)c3cccc4cccc2c34)CC1 — 1.6-fold higher, 100 nM
- O=S1(=O)c2cccc3cccc(c23)N1CCCCN1CCCCC1 — higher, > 10000 nM
- CC1CCN(CCCCN2C(=O)c3cccc4cccc2c34)CC1 — higher, > 1000 nM
- COc1ccccc1N1CCN(CCCCCN2c3cccc4cccc(c34)S2(=O)=O)CC1 — 4-fold higher, 251 nM
- O=C1c2cccc3cccc(c23)N1CCCCCN1CCN(c2ccccc2)CC1 [UCM-5600] — within 1.5-fold, 79.4 nM

biological target: T1, 5-hydroxytryptamine receptor 7; experiment: Binding affinity towards 5-hydroxytryptamine 7 receptor

Point of comparison: `Cc1nc2sccn2c(=O)c1CCN1CCC(=C(c2ccc(F)cc2)c2ccc(F)cc2)CC1` [RITANSERIN], Ki 15.8 nM. Against it:
- CCN(CC)C(=O)[C@@H]1C=C2c3cccc4[nH]c(Br)c(c34)C[C@H]2N(C)C1 — 1.6-fold lower, 10 nM
- CN1C[C@H](CNC(=O)OCc2ccccc2)C[C@@H]2c3cccc4c3c(cn4C)C[C@H]21 [METERGOLINE] — 2.5-fold lower, 6.31 nM
- Cc1cccc(S(=O)(=O)N2CCC[C@@H]2CCN2CCC(C)CC2)c1 [SB-258741] — 5-fold lower, 3.16 nM

biological target: T2, 5-hydroxytryptamine receptor 7 (Homo sapiens, UniProt P34969); experiment: Binding affinity towards cloned human 5-hydroxytryptamine 7 receptor in HEK 293 cells; format: cell-based, HEK293
T2 sequence (P34969 whole entry): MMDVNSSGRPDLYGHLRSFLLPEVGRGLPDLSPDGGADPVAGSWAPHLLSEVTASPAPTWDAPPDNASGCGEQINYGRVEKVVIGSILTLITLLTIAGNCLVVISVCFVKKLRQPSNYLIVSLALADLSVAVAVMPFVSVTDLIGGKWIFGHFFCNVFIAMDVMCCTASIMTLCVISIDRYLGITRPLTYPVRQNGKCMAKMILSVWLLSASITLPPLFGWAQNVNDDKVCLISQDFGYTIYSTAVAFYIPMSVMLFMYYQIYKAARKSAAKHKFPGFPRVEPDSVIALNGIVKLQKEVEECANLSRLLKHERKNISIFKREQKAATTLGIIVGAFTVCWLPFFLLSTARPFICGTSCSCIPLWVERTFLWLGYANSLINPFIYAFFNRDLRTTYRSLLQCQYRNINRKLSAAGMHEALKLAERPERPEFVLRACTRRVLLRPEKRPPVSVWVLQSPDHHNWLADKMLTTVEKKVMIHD

Point of comparison: `O=C1Nc2cccc3c2C1(CCCCN1CCN(C2CCCCC2)CC1)CCC3` (stereo not drawn), Ki 10000 nM. Against it:
- C[C@H]1CCCN(CC[C@H](C)N(C)S(=O)(=O)c2cccc3ccccc23)C1 — the same, 10000 nM

biological target: T2, 5-hydroxytryptamine receptor 7; experiment: Binding affinity towards human recombinant 5-hydroxytryptamine 7 receptor using [3H]5-CT as radioligand

Point of comparison: `O=C1Nc2cccc3c2C1(CCCCN1CCN(c2ccccc2)CC1)CCC3` (stereo not drawn), Ki 3.16 nM. Against it:
- COc1ccccc1N1CCN(CCCCC23CCCc4cccc(c42)NC3=O)CC1 (stereo not drawn) — 1.6-fold higher, 5.01 nM
- O=C1Nc2cccc3c2C1(CCCCN1CCC(c2ccccc2)CC1)CCC3 (stereo not drawn) — 1.6-fold lower, 2 nM
- O=C1Nc2cccc3c2C1(CCCN1CCN(c2ccccc2)CC1)CCC3 (stereo not drawn) — 1.6-fold higher, 5.01 nM
- O=C1Nc2cccc3c2C1(CCN1CCN(c2ccccc2)CC1)CCC3 (stereo not drawn) — 32-fold higher, 100 nM
- N#Cc1ccccc1N1CCN(CCCCC23CCCc4cccc(c42)NC3=O)CC1 (stereo not drawn) — within 1.5-fold, 3.98 nM
- O=C1Nc2cccc3c2C1(CCCCN1CCN(c2ccccn2)CC1)CCC3 (stereo not drawn) — 1.6-fold lower, 2 nM
